Data set [1] relates to IAV A/Puerto Rico/8/32 (H1N1). As to the kind of experiment: Virus titer of lung homogenizates (foci assay). The format is in vivo, mice. The conditions noted are these: 10 mg/kg 1×daily for 6 days, 500 PFU/mouse, 7th day p.i., n=3. As for the experimental part: PR8: Virus titer of lung homogenizates from mice infected with IAV A/Puerto Rico/8/32 (H1N1, 500 PFU/Mouse) were infected (7th day p.i.).
For the foci forming assay, MDCK II cells were seeded in 96-well plates at a concentration of 3×10^6 cells/plate. The next day, 10-fold dilutions in duplicates (from 10^−1 to 10^−8) in PBS+/+/BA/PS was prepared from each virus sample in U-shaped 96-well. Importantly, during the preparation of the dilutions the pipet tips were changed after each dilution step. The MDCK II cells in the 96-well plate(s) were washed once with PBS+/+. […] 1 hour later, cells again were washed with 400 μl of washing buffer and 40 μl 3-Amino-9-ethylcarbazole (AEC)-staining buffer (1×AEC diluted N—N-dimethylformamide in acetate buffer (50 mM ammonium acetate, 8.8 mM H202) were added to each well. Following incubation for 30 min at 37° C. until foci could be detected, the staining buffer was removed and cells were washed twice with dH2O. Air-dried plates were scanned by using the Epson Perfection V500 Photo scan (Epson) at 1200 dpi and total number of foci was determined per well. Since Avicel-medium has a high viscosity that prevents diffusion of virus particles in surrounding media, virus can spread only from one cell to other forming foci. […]

Data set [2] has as its system IAV A/Puerto Rico/8/32 (H1N1). The data set is described as follows: Lung histology (Hematoxilin/Eosin) and nuclear count quantification of infiltrates. Format: in vivo. As to conditions: 10 mg/kg 1×daily for 6 days, 5 mice, 7th day p.i., Aperio nuclear count.
Data set [3] concerns IAV A/Puerto Rico/8/32 (H1N1). The data set is described as follows: Body weight of infected mice. Format: in vivo, C57BL/6 mice. As to conditions: 10 mg/kg 1×daily in saline solution, 500 PFU/mouse, 7 days. As for the experimental part: PR8: Body weight of mice infected with IAV A/Puerto Rico/8/32 (H1N1, 500 PFU/mouse). […] The experiment was planned for 7 days only. Afterwards the mice were euthanized for ethical reasons.
All animal experiments were performed according to the latest guidelines of the “Federation of European Laboratory Animal Science Associations (FELASA)” and approved by the local committee of the Max-Planck Laboratory for Heart & Lung Research Instituto de Investigación en Biomedicina de Buenos Aires (IBioBA). Six-week-old BALB/c mice (n=5 per group) were infected by intra-tracheal inoculation of 500 plaque-forming units (pfu)/mouse of PR8 in a volume of 30 μl. […] As a control IP injection of sterile PBS −/− were applied. Body weight was monitored every day until day 8 p.i.. On the day 7 after treatment start (=day 8 p.i.) mice were sacrificed by an overdose of isoflurane.

Data set [4] concerns polarized Calu3 cells infected with influenza virus A/Puerto Rico/8/34 (H1N1). As to the kind of experiment: Vectorial water transport (FITC-dextran) over polarized Calu3 cells. The format is cell-based, human.
For data set [5], the system named is Calu3 cells infected with influenza virus A/Puerto Rico/8/34. As to the kind of experiment: Coomassie staining of confluent polarized Calu3 cells (virus-induced epithelial cell damage). Format: cell-based. The conditions noted are these: 5 μM, MOI=5, Coomassie 24 h p.i.
The test system of data set [6] is Calu3 cells infected with influenza virus A/Puerto Rico/8/34 (H1N1). As to the kind of experiment: Antibody staining and confocal laser-scanning microscopy of apical NKA localization. The format is cell-based, human. As to conditions: PR8-infected Calu3 cells treated with ROCK inhibitor, 20 h p.i. As for the experimental part:
In order to obtain highly polarized Calu3 cells, the cell monolayer in a 175 cm^2 tissue culture flask grown to 50% confluence was washed once with PBS −/− and treated with Trypsin-EDTA. Cells were resuspended in 10 ml culture medium and centrifuged for 15 min at 300×g, 24° C. Supernatant was discarded and cells were resuspended in 5 ml of culture medium. 30 μl of cell suspension were mixed with 30 μl of 0.4% trypan blue dye and cell concentration was calculated in Neubauer chamber according manufacturer's instruction. Cells were dilute to a concentration of 2×10^6 viable cells/ml in Calu3 culture medium and 250 μl/125 μl of the cell suspension containing 0.5×10^6/0.25×10^6 viable cells were placed to the apical compartment of each Transwells® insert in a 12/24 well plate. 1/0.3 ml of Calu-3 culture medium was added into the basolateral compartments, avoiding the introduction of air bubbles and cells were cultivated at 37° C., 5% CO2. For the cells grown under the Liquid-Liquid Interface (LLI) condition, medium was replaced in both compartments each second day. For Air-Liquid Interface (ALI), culture medium was aspirated from the apical compartment on the day two, whereas medium was replaced every 2 days in the basolateral compartments.
For immunofluorescence assay cells were washed ones with PBS+/+ and fixed with or without extra permeabilization at the indicated time points. […]

In the case of `Cl.O=S(=O)(c1cccc2cnccc12)N1CCCNCC1` [Fasudil HCl, Isoquinoline 5-[(hexahydro-1H-1,4-diazepin-1-yl)sulfonyl]-N-(5-Isoquinolinesulfonyl)-1,4-per-hydrodiazepine], the “virus titer in the lungs of infected mice” value in data set [1] was “reduces the virus titer in the lungs of infected mice”. Further, the “number of infiltrates (quantification, total cell count/mm2)” value in data set [2] is reported as “reduces the number of infiltrates”. For the same molecule, in data set [3], the “body weight loss of infected mice” value was “tendential reduction of the body weight loss”.
Take `O=C(NCc1cccc(O)c1)Nc1nc(-c2ccncc2)cs1` [Rho XIII, 1-(3-Hydroxybenzyl)-3-(4-(pyridin-4-yl)thiazol-2-yl)urea]: the “cell viability of infected Calu3 cells” value with Calu3 cells is “increases cell viability”. In addition, the “cell viability of non-infected Calu3 cells” value in the data set on Calu3 cells (5 μM, 0, 6, 16, 24 hours, mock set to 100%) is “increases cell viability”. Also, in data set [4], the “vectorial water transport (VWT)” value was “improves vectorial water transport”. In addition, in data set [5], the “virus-induced epithelial cell damage (cytopathic effect)” value is listed as “reduces virus-induced epithelial cell damage in vitro”. Moreover, the “apical sodium-potassium-ATPase (NKA) localization” value in data set [6] was “prevents apical sodium-potassium-ATPase (NKA) localization”.

Source of the values: patent publication US20230172944A1, “ROCK INHIBITORS FOR USE IN TREATING OR PREVENTING PULMONARY EDEMA” (ATRIVA THERAPEUTICS GMBH, priority 2020, published 2023).
